From patent EP0754034B1, “EFFERVESCENT PHARMACEUTICAL FORMULATIONS CONTAINING CONTROLLED RELEASE BIODEGRADABLE MICROCAPSULES” (ELAN CORPORATION, Plc, priority 1994, dated 1995)
≈ marks a conversion by molar mass, not a printed value. Where two headings read alike, the source gives them in different places.

Experiments:
[1] = Saturated solubility (Cs) measured to establish sink conditions; assay type: physicochemical
Description: Prior to carrying out in vitro release studies, the saturated solubility of diltiazem HCI was measured in order to establish sink conditions.
Prior to carrying out in vitro release studies, the saturated solubility of diltiazem base was measured in order to establish sink conditions. […] The microsphere systems studied had diltiazem base starting loadings of 10% w/w, 20% w/w, 30% w/w, and 50% w/w, D 50% of […], respectively, and were prepared by Method A using the Ultra Turrax.

[2] = cited from earlier work

With `COc1ccc([C@@H]2Sc3ccccc3N(CCN(C)C)C(=O)[C@@H]2OC(C)=O)cc1` [Diltiazem HCI] the solubility ([1]; aqueous buffer, thermodynamic from solid, phosphate buffer pH 7.4, read-out: Cs (saturated solubility)) was 2.39 mg/mL (≈ 5.77 mM) and the solubility ([1]; pH 1.2, read-out: Cs (saturated solubility)) was > 1000 mg/mL.
For `COc1ccc([C@@H]2Sc3ccccc3N(CCN(C)C)C(=O)[C@@H]2OC(C)=O)cc1` [Diltiazem base], the pKa [2] is given as “around 8”, the solubility ([1]; pH 1.2, simulated gastric fluid, thermodynamic from solid) is given as 227 mg/mL (≈ 549 mM) and the solubility ([1]; pH 7.4, aqueous buffer, thermodynamic from solid) is given as 1.06 mg/mL (≈ 2.56 mM).
